Laboratory results from patent US4032633A, “Polypeptides” (Imperial Chemical Industries Limited, priority 1974, dated 1977).

Test system: secretion of acidic gastric juice stimulated with histamine
Assay: Inhibition of histamine-stimulated secretion of acidic gastric juice in dogs with a Heidenhain pouch, single intravenous injection
Type: in vivo, dog
Conditions: column fractions or products assayed in histamine-stimulated pouch dogs
Experimental: This test is used to determine the biological potency of the products, which is defined as the amount of the product expressed in μg./kg. which, on administration by intravenous injection to a dog provided with a Heidenhain pouch and whose secretion of gastric acid is stimulated to 60-89% of the maximum level of secretion by an infusion of histamine, causes a 50-70% inhibition of that acid secretion. Some variation in the biological potency of a particular sample is found if it is measured in different dogs and on different occasions, and so the result is best expressed as a dose range. The physiological effect of inhibiting the secretion of acidic gastric juice is of value in the treatment of duodenal ulcers, and under the test conditions, no serious toxic effects were observed. The polypeptides also show ulcer healing properties in a standard test. […]
Dogs were prepared with separated denervated fundic pouches, and a subcutaneous infusion of histamine was used to stimulate gastric secretion to approximately 60-80% of the maximal rate [usually an infusion of a solution of 600 μg. of histamine (expressed as base) in 0.48 ml. per hour was adequate]. […]
The specific activity may be determined from the results obtained for several different doses.

Row | Substance | biological activity (inhibition of gastric secretion), in words
1 | material in fractions 38-52: hexapeptide liberated from β-urogastrone: Glu 1, Leu 1, Lys 1, Trp 2, Arg 1, lysine at the N-terminus (KWWELR; Epidermal growth factor; UniProt P01133 1018-1023, looked up, fragment) | biologically inactive
2 | material in fractions 49-65: pentapeptide liberated from γ-urogastrone: Glu 1, Leu 1, Lys 1, Trp 2, lysine at the N-terminus (KWWEL; Epidermal growth factor; UniProt P01133 1018-1022, looked up, fragment) | biologically inactive
